Structures can show the parent of a compound that is named as a salt.

The source of these data is patent US7851473B2, “Amide compound” (Takeda Pharmaceutical Company Limited, priority 2004, dated 2010).

For the experiment, the target named is T1, human FAAH (Homo sapiens, UniProt O00519).
T1 construct: made in house; 10000 g pellet suspended in M-PER
T1 sequence (O00519 1-579): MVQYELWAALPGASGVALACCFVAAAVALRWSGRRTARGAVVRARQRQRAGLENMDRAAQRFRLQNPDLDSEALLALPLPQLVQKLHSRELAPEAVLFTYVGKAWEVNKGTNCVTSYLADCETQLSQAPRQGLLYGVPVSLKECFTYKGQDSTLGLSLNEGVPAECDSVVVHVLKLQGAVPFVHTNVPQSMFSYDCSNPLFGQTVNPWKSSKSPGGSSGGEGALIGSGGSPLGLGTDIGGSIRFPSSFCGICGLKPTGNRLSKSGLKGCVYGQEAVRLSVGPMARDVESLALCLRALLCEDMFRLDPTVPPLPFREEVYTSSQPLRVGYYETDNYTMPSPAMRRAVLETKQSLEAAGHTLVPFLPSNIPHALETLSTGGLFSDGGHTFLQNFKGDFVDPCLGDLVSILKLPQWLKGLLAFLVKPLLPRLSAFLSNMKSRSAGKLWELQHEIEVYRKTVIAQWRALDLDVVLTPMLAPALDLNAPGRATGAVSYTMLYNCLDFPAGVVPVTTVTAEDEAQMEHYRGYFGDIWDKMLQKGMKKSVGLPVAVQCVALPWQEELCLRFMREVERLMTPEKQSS
In words: Measurement of FAAH inhibitory activity (anandamide [ethanolamine 1-3H] hydrolysis, filter plate). The class given is biochemical. To be noted: test compound 1 μM; CHO-K1/human FAAH enzyme fraction; anandamide 25 nM; 37° C., 30 minutes; read-out: Human FAAH Inhibition Rate at 1 μM (%). The procedure:
(1) Preparation of Enzyme Fraction
The FAAH gene was cloned by PCR. That is, a human brain library was used as a cDNA library, 5′-[…]-3′ [SEQ ID NO:1] and 5′-[…]-3′ [SEQ ID NO:2] were used as a primer set, and KOD DNA polymerase (Toyobo Co., Ltd.) was used as a DNA polymerase. One cycle of the reaction comprises 95° C. for 30 sec, 55° C. for 30 sec and 72° C. for 2 min, and 45 cycles of the reaction was carried out to obtain an amplified fragment. The amplified fragment was cleaved with restriction enzymes EcoRI and SalI, and then was inserted into a pMSRα vector which had been cleaved with the same restriction enzymes EcoRI and SalI to obtain a pMSRα-human FAAH. A cell line CHO-K1 and the above-obtained plasmid were subjected to a method known per se to prepare the cell line CHO-K1/human FAAH in which human FAAH was stably expressed. The CHO-K1/human FAAH was cultured in a CO2 incubator at 37° C., using a medium (Ham's F-12 medium supplemented with final concentration 10% of fetal bovine serum (FBS) and final concentration 800 μg/ml of G418), and then the cells were harvested. After washing with PBS, the cells were suspended in a buffer (10 mM Tris, 1 mM EDTA and 10 mM MgCl2, all at final concentrations) and disrupted with a Polytron homogenizer. After centrifugation at 900 g, the supernatant was recovered and further centrifuged at 10000 g. A pellet obtained therefrom was suspended in M-PER (Catalog No. 78501; PIERCE) to give an enzyme fraction.
Using a white walled 96-well plate (Coster Corp.), the test compound at various concentrations, 60 ng of the enzyme fraction and the substrate anandamide [ethanolamine 1-^3H] (final concentration 25 nM) were reacted in 50 μl of a reaction buffer (125 mM Tris-HCl (pH 9.0), 1 mM EDTA, 0.4 mM HEPES, 0.2% glycerol and 0.02% Triton X-100, all at final concentrations) at 37° C. for 30 minutes. The reaction mixture was transferred to a 96-well MultiScreen-HA filter plate (Millipore Corp.) and then was left to stand overnight at room temperature in order to allow the unreacted substrate to be adsorbed on the filter. The plate was washed with PBS using a MultiScreen Vacuum Manifold (Millipore Corp.) and dried. To each well, 50 μl of liquid scintillation cocktail was added and stirred, and then counting was performed with a TopCount (Perkin-Elmer Corp.). The count of a sample containing a solvent instead of the test compound was taken as 0%, and the count at zero time was taken as 100%, to calculate the inhibitory activity of the compound.
A word on the inhibition: it is the relative decrease from the control value, in per cent. Take `O=C(Nc1noc2ccccc12)N1CCN(c2nc(-c3ccccc3)ns2)CC1` [Example 1, N-1,2-Benzisoxazol-3-yl-4-(3-phenyl-1,2,4-thiadiazol-5-yl)piperazine-1-carboxamide]: the inhibition at 1 µM is 100%. Regarding `CC(C)c1nsc(N2CCN(C(=O)Nc3noc4ccccc34)CC2)n1` [Example 9, N-1,2-Benzisoxazol-3-yl-4-(3-isopropyl-1,2,4-thiadiazol-5-yl)piperazine-1-carboxamide], the inhibition at 1 µM was found to be 98%. For `O=C(Nc1noc2ccccc12)N1CCN(c2nc(-c3ccccn3)ns2)CC1` [Example 15, N-1,2-Benzisoxazol-3-yl-4-(3-pyridin-2-yl-1,2,4-thiadiazol-5-yl)piperazine-1-carboxamide], the inhibition at 1 µM amounted to 102%.

With `O=C(Nc1noc2ccccc12)N1CCN(c2nc(N3CCCCC3)ns2)CC1` [Example 17, N-1,2-Benzisoxazol-3-yl-4-(3-piperidin-1-yl-1,2,4-thiadiazol-5-yl)piperazine-1-carboxamide], the inhibition at 1 µM was 95%. Next, `O=C(Nc1noc2ccccc12)N1CCN(c2nc(-c3ccccc3)no2)CC1` [Example 22, N-1,2-Benzisoxazol-3-yl-4-(3-phenyl-1,2,4-oxadiazol-5-yl)piperazine-1-carboxamide]: 94%; `O=C(Nc1noc2ccccc12)N1CCN(c2nc(-c3ccccc3)co2)CC1` [Example 23, N-1,2-Benzisoxazol-3-yl-4-(4-phenyl-1,3-oxazol-2-yl)piperazine-1-carboxamide]: 100%.

As to `O=C(Nc1ccc2[nH]nnc2c1)N1CCN(c2nc(-c3ccccc3)ns2)CC1` [Example 71, N-1H-1,2,3-Benzotriazol-5-yl-4-(3-phenyl-1,2,4-thiadiazol-5-yl)piperazine-1-carboxamide], the inhibition at 1 µM was determined as 108%.

Take `O=C(Nc1cccnc1)N1CCN(c2nc(-c3ccccc3)ns2)CC1` [Example 85, 4-(3-Phenyl-1,2,4-thiadiazol-5-yl)-N-pyridin-3-ylpiperazine-1-carboxamide hydrochloride]: the inhibition at 1 µM was 100%.

Consider `O=C(Nc1cccnc1)N1CCN(c2nc(-c3ccccc3)cs2)CC1` [Example 94, 4-(4-Phenyl-1,3-thiazol-2-yl)-N-pyridin-3-ylpiperazine-1-carboxamide], for which the inhibition at 1 µM amounted to 100%.

Consider `O=C(Nc1noc2ccccc12)N1CCN(C(=O)OCc2ccccc2)CC1` [Example 95, Benzyl 4-[(1,2-benzisoxazol-3-ylamino)carbonyl]piperazine-1-carboxylate], for which the inhibition at 1 µM is 100%.

Take `O=C(Nc1cccnn1)N1CCN(c2nc(-c3ccccc3)ns2)CC1` [Example 147, 4-(3-Phenyl-1,2,4-thiadiazol-5-yl)-N-pyridazin-3-ylpiperazine-1-carboxamide]: the inhibition at 1 µM turned out to be 101%. Next, `O=C(Nc1cnccn1)N1CCN(c2nc(-c3ccccc3)cs2)CC1` [Example 166, 4-(4-Phenyl-1,3-thiazol-2-yl)-N-pyrazin-2-ylpiperazine-1-carboxamide]: 106%. The value for `Cc1noc(NC(=O)N2CCC(c3nc(-c4ccccc4)cs3)CC2)c1C` [Example 190, N-(3,4-Dimethylisoxazol-5-yl)-4-(4-phenyl-1,3-thiazol-2-yl)piperidine-1-carboxamide] was 103%; that for `CCc1sc(N2CCN(C(=O)Nc3ccc(NC(C)=O)nc3)CC2)nc1-c1ccccc1` [Example 226, N-[6-(Acetylamino)pyridin-3-yl]-4-(5-ethyl-4-phenyl-1,3-thiazol-2-yl)piperazine-1-carboxamide] was 104%; that for `O=C(Nc1cccnn1)N1CCN(c2nc(-c3cccc(F)c3)cs2)CC1` [Example 228, 4-[4-(3-Fluorophenyl)-1,3-thiazol-2-yl]-N-pyridazin-3-ylpiperazine-1-carboxamide] was 106%. The value for `O=C(Nc1cnccn1)N1CCN(c2nc(-c3cccc(F)c3)cs2)CC1` [Example 229, 4-[4-(3-Fluorophenyl)-1,3-thiazol-2-yl]-N-pyrazin-2-ylpiperazine-1-carboxamide] was 105%. As to `Cc1noc(NC(=O)N2CCC(c3nc(-c4ccc(F)cc4)cs3)CC2)c1C` [Example 236, N-(3,4-Dimethylisoxazol-5-yl)-4-[4-(4-fluorophenyl)-1,3-thiazol-2-yl]piperidine-1-carboxamide], the inhibition at 1 µM is 106%. Next, `Cc1noc(NC(=O)N2CCN(c3nc(-c4ccc(F)cc4F)cs3)CC2)c1C` [Example 260, 4-[4-(2,4-Difluorophenyl)-1,3-thiazol-2-yl]-N-(3,4-dimethylisoxazol-5-yl)piperazine-1-carboxamide]: 102%. The value for `O=C(Nc1cccnc1)N1CCN(c2nc(-c3cccc(F)c3F)cs2)CC1` [Example 262, 4-[4-(2,3-Difluorophenyl)-1,3-thiazol-2-yl]-N-pyridin-3-ylpiperazine-1-carboxamide] was 106%; that for `O=C(Nc1cccnn1)N1CCN(c2nc(-c3cccc(F)c3F)cs2)CC1` [Example 272, 4-[4-(2,3-Difluorophenyl)-1,3-thiazol-2-yl]-N-pyridazin-3-ylpiperazine-1-carboxamide] was 102%. `Cc1cccc(-c2csc(N3CCN(C(=O)Nc4cccnc4)CC3)n2)c1` [Example 275, 4-[4-(3-Methylphenyl)-1,3-thiazol-2-yl]-N-pyridin-3-ylpiperazine-1-carboxamide]: the inhibition at 1 µM is 94%. The value for `Cc1noc(NC(=O)N2CCN(c3nc(-c4cccc(Cl)c4)cs3)CC2)c1C` [Example 276, 4-[4-(3-Chlorophenyl)-1,3-thiazol-2-yl]-N-(3,4-dimethylisoxazol-5-yl)piperazine-1-carboxamide] was 104%; that for `COc1cccc(-c2csc(N3CCN(C(=O)Nc4onc(C)c4C)CC3)n2)c1` [Example 277, N-(3,4-Dimethylisoxazol-5-yl)-4-[4-(3-methoxyphenyl)-1,3-thiazol-2-yl]piperazine-1-carboxamide] was 100%. Consider `Cc1noc(NC(=O)N2CCN(c3nc(-c4cccc(C(F)(F)F)c4)cs3)CC2)c1C` [Example 278, N-(3,4-Dimethylisoxazol-5-yl)-4-{4-[3-(trifluoromethyl)phenyl]-1,3-thiazol-2-yl}piperazine-1-carboxamide], for which the inhibition at 1 µM turned out to be 104%. The value for `Cc1cccc(-c2csc(N3CCN(C(=O)Nc4onc(C)c4C)CC3)n2)c1` [Example 280, N-(3,4-Dimethylisoxazol-5-yl)-4-[4-(3-methylphenyl)-1,3-thiazol-2-yl]piperazine-1-carboxamide] was 86%; that for `O=C(Nc1cccnc1)N1CCN(c2nc(-c3cccc(Cl)c3Cl)cs2)CC1` [Example 283, 4-[4-(2,3-Dichlorophenyl)-1,3-thiazol-2-yl]-N-pyridin-3-ylpiperazine-1-carboxamide] was 102%; that for `Cc1noc(NC(=O)N2CCN(c3nc(-c4cccc(Cl)c4Cl)cs3)CC2)c1C` [Example 284, 4-[4-(2,3-Dichlorophenyl)-1,3-thiazol-2-yl]-N-(3,4-dimethylisoxazol-5-yl)piperazine-1-carboxamide] was 128%.
